This note sets out measurements from ChEMBL document CHEMBL1201862, “PubChem BioAssay data set” (2004).

Some test systems named below: NCI/ADR-RES; KM12; HL-60; HT-29; OVCAR-5; RXF 393; SNB-75; NCI-H23; NCI-H460; SK-MEL-28; SK-OV-3; A549; DU-145; PC-3; K562; SF-295; OVCAR-3; LOX IMVI; Malme-3M; CCRF-CEM.
Holding throughout (assay): inhibition of tumour cell growth, NCI panel, 48 h

“And” between values parts separate entries of the source, which are not always exact repeats. Equal values may be shown once.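 Following 48 hours of exposure in 96-well plates, responses at five concentrations were used to interpolate endpoints linearly. Here, GI50 denotes the concentration required for 50% inhibition of growth.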 The source made the active and inactive calls. Rule as the data show it: active = GI50 up to about 1.1 µM and inactive = higher. Non-standard residues stand in square brackets, D forms with d. Residues, ends and D or L forms follow the SMILES beside them. *: point of attachment. Ac5c = NC1(C(=O)O)CCCC1; Boc = CC(C)(C)OC(=O)*; tBu = CC(C)(C)* Where only a bound is given, the exact number is not on record here.

Take `Cc1ccc(/C=C2/N/C(=N\N=C/C(O)C(O)C(O)CO)NC2=O)cc1` (stereo unspecified): the GI50 with NCI/ADR-RES is > 100 µM (inactive); in the experiment on KM12, > 100 µM (inactive); in the experiment on HL-60, 56.5 µM (inactive) and 56.4 µM (inactive); in the experiment with HT-29, > 100 µM (inactive); in the experiment on OVCAR-5, > 100 µM (inactive); with RXF 393, > 100 µM (inactive). In addition, the GI50 is > 100 µM (inactive) with SNB-75; > 10 µM (inactive) in the experiment on NCI-H23; > 100 µM (inactive) in the experiment on NCI-H460; > 100 µM (inactive) in the experiment on SK-MEL-28; > 100 µM (inactive) in the experiment with SK-OV-3; > 100 µM (inactive) in the experiment on A549. The GI50 in the experiment on DU-145 was > 100 µM (inactive); in the experiment on PC-3, > 100 µM (inactive); with K562, 55.5 µM (inactive) and 47.8 µM (inactive); with SF-295, > 100 µM (inactive); with OVCAR-3 it was 52.4 µM (inactive) and 69.8 µM (inactive); with LOX IMVI, > 100 µM (inactive).
As to `Cc1ccc(C)n2c1nc1ccccc12`, the GI50 was > 100 µM (inactive) in the experiment on NCI/ADR-RES; > 100 µM (inactive) in the experiment on KM12; > 100 µM (inactive) in the experiment on HL-60; 31.9 µM (inactive) in the experiment on HT-29; > 100 µM (inactive) with OVCAR-5; 96.4 µM (inactive) in the experiment with RXF 393. Further, the GI50 in the experiment on SNB-75 is 24.9 µM (inactive); in the experiment with NCI-H23, > 100 µM (inactive); in the experiment on NCI-H460, 25.5 µM (inactive); in the experiment on SK-MEL-28, > 100 µM (inactive); with SK-OV-3, > 100 µM (inactive); in the experiment with Malme-3M, > 100 µM (inactive). Moreover, the GI50 was 33 µM (inactive) in the experiment with A549; > 100 µM (inactive) in the experiment with DU-145; > 100 µM (inactive) with PC-3; > 100 µM (inactive) in the experiment on K562; > 100 µM (inactive) with SF-295; > 100 µM (inactive) with OVCAR-3. Also, in the experiment with CCRF-CEM, the GI50 was > 100 µM (inactive).
For the molecule `CC(C)C(C/C=C1\CC(CO)(COC(=O)C2CCCCC2)OC1=O)C(C)C` (stereo unspecified), the GI50 is 20.7 µM (inactive) in the experiment on NCI/ADR-RES; 18.4 µM (inactive) in the experiment with KM12; 30.6 µM (inactive) with HT-29; 20 µM (inactive) in the experiment on OVCAR-5; 19.1 µM (inactive) in the experiment with RXF 393; 12.9 µM (inactive) in the experiment on SNB-75. Moreover, the GI50 with NCI-H23 was 20.6 µM (inactive); in the experiment with NCI-H460, 24.4 µM (inactive); with SK-MEL-28, 16.6 µM (inactive); in the experiment with SK-OV-3, > 100 µM (inactive); in the experiment with Malme-3M, 16.2 µM (inactive); in the experiment on A549 it was 16.8 µM (inactive). In addition, the GI50 is 12.3 µM (inactive) with DU-145; 18.2 µM (inactive) in the experiment on PC-3; 6.25 µM (inactive) in the experiment on K562; 16.3 µM (inactive) with SF-295; 20 µM (inactive) in the experiment on OVCAR-3; 15.7 µM (inactive) in the experiment on LOX IMVI. Besides, in the experiment with CCRF-CEM, the GI50 was 16.9 µM (inactive).
On to `CC(OC(C)(C)C)C(NC(=O)C(CCCCNC(=O)OC(C)(C)C)NC(=O)C(Cc1c[nH]c2ccccc12)NC(=O)C(N)Cc1ccccc1)C(=O)NC(Cc1ccccc1)C(=O)NC1(C(=O)O)CCCC1` (stereo unspecified) (H-FWK(Boc)T(tBu)F[Ac5c]-OH; configuration not given here), for which the GI50 in the experiment with NCI/ADR-RES, in the experiment with KM12, with HT-29, in the experiment with OVCAR-5, in the experiment with RXF 393 and in the experiment with SNB-75 was > 100 µM (inactive) in each case. For the same molecule, the GI50 in the experiment with NCI-H23, in the experiment with NCI-H460, in the experiment on SK-MEL-28, in the experiment with SK-OV-3, with Malme-3M and with A549 was > 100 µM (inactive) each time. Also, the GI50 in the experiment with DU-145, in the experiment on PC-3, in the experiment with K562, with SF-295, in the experiment with OVCAR-3 and in the experiment on LOX IMVI was > 100 µM (inactive) throughout. For the same molecule, the GI50 in the experiment with CCRF-CEM was > 100 µM (inactive).
On to `CC(C)CCCC(C)[C@H]1CC[C@H]2N/C(=N/c3ccccc3)CCC[C@]12C` (stereo partly specified), for which the GI50 was 1.68 µM (inactive) in the experiment with NCI/ADR-RES; 2.43 µM (inactive) in the experiment with KM12; 1.85 µM (inactive) in the experiment with HL-60; 0.501 µM (active) in the experiment with HT-29; 1.42 µM (inactive) with RXF 393; 1.88 µM (inactive) with SNB-75. Moreover, the GI50 in the experiment with NCI-H23 is 1.72 µM (inactive); with NCI-H460 it was 1.93 µM (inactive); with SK-MEL-28, 2.09 µM (inactive); with SK-OV-3 it was 2.03 µM (inactive); with Malme-3M, 2.67 µM (inactive); with A549 it was 2.81 µM (inactive). Besides, the GI50 in the experiment with DU-145 was 6.52 µM (inactive); with PC-3, 2.97 µM (inactive); with K562, 1.33 µM (inactive); in the experiment with SF-295 it was 1.6 µM (inactive); in the experiment with OVCAR-3, 2.29 µM (inactive); in the experiment with LOX IMVI, 0.863 µM (active). Further, the GI50 in the experiment on CCRF-CEM is 2.51 µM (inactive).
With `CC(C)(C)/C(O)=C\c1nc2cc(F)c(F)cc2[nH]c1=O`, the GI50 with NCI/ADR-RES, in the experiment with KM12, with HL-60, in the experiment with HT-29, in the experiment on RXF 393 and in the experiment with SNB-75 was > 100 µM (inactive) throughout. The GI50 is > 100 µM (inactive) in the experiment on NCI-H23; > 100 µM (inactive) with NCI-H460; > 100 µM (inactive) in the experiment on SK-MEL-28; > 100 µM (inactive) in the experiment on SK-OV-3; 25.7 µM (inactive) with DU-145; > 100 µM (inactive) in the experiment with PC-3. In addition, the GI50 with K562, with SF-295, with LOX IMVI and in the experiment on CCRF-CEM was > 100 µM (inactive) in each case.
As to `CC1CC(N2CCOCC2)=Nc2ccccc2N1C` (stereo unspecified), the GI50 in the experiment on NCI/ADR-RES, in the experiment on KM12, in the experiment on HL-60, in the experiment with HT-29, in the experiment with OVCAR-5 and in the experiment with RXF 393 was > 100 µM (inactive) throughout. The GI50 was 0.0392 µM (active) with SNB-75; 80 µM (inactive) in the experiment with NCI-H23; > 100 µM (inactive) with NCI-H460; > 100 µM (inactive) with SK-MEL-28; > 100 µM (inactive) with SK-OV-3; 56.4 µM (inactive) in the experiment on Malme-3M. The GI50 with A549, in the experiment with DU-145, in the experiment on PC-3, in the experiment on K562, in the experiment on SF-295 and in the experiment on OVCAR-3 was > 100 µM (inactive) each time. In the experiment on CCRF-CEM, the GI50 was > 100 µM (inactive).
For `O=c1cc(-c2ccccc2)[nH]c2ccc(S)cc12`, the GI50 in the experiment on NCI/ADR-RES is 24.9 µM (inactive); in the experiment on KM12, 28.8 µM (inactive); in the experiment with HL-60, 35.7 µM (inactive); in the experiment on HT-29, 29 µM (inactive); in the experiment with OVCAR-5, 86.3 µM (inactive); in the experiment with RXF 393, 31.5 µM (inactive). In addition, the GI50 in the experiment on SNB-75 is 24.6 µM (inactive); in the experiment on NCI-H23, 33.9 µM (inactive); in the experiment with NCI-H460 it was 31.8 µM (inactive); in the experiment with SK-MEL-28, 28.8 µM (inactive); with SK-OV-3, 23.7 µM (inactive); with Malme-3M it was 27.5 µM (inactive). The GI50 was 52.1 µM (inactive) with A549; 52.2 µM (inactive) with DU-145; 20.6 µM (inactive) in the experiment on PC-3; 21.9 µM (inactive) in the experiment on K562; 38.5 µM (inactive) in the experiment with SF-295; 28.6 µM (inactive) in the experiment on OVCAR-3. The GI50 in the experiment on CCRF-CEM is 22.1 µM (inactive).
For the molecule `CC[C@@]1(O)C(=O)OCc2c1cc1n(c2=O)Cc2c-1nc1ccccc1c2/C=N\NC(=O)CN`, the GI50 is 0.726 µM (active) with NCI/ADR-RES; 6.14 µM (inactive) in the experiment with KM12; 0.145 µM (active) in the experiment on HL-60; 1.68 µM (inactive) in the experiment with HT-29; 3.24 µM (inactive) in the experiment with OVCAR-5; 0.873 µM (active) with RXF 393. Moreover, the GI50 was 0.133 µM (active) in the experiment on SNB-75; 0.0676 µM (active) in the experiment with NCI-H23; 0.042 µM (active) with NCI-H460; 23 µM (inactive) in the experiment on SK-MEL-28; 2.76 µM (inactive) with Malme-3M; 0.687 µM (active) in the experiment with A549. Also, the GI50 in the experiment on DU-145 was 0.0989 µM (active); in the experiment with PC-3, 4.73 µM (inactive); in the experiment with K562 it was 0.586 µM (active); in the experiment with SF-295, 0.143 µM (active); in the experiment with OVCAR-3 it was 6.9 µM (inactive); with LOX IMVI it was 0.0989 µM (active). In addition, the GI50 with CCRF-CEM is < 0.0163 µM (active).
As for `CC(=O)OC1[C@@H](OC(C)=O)CN(OCc2ccccc2)C[C@H]1OC(C)=O` (stereo partly specified), the GI50 in the experiment with NCI/ADR-RES, in the experiment on KM12, in the experiment with HL-60, with HT-29, in the experiment on OVCAR-5 and in the experiment on RXF 393 was > 100 µM (inactive) each time. The GI50 in the experiment on SNB-75 was > 100 µM (inactive); with NCI-H23 it was > 100 µM (inactive); in the experiment on NCI-H460, > 100 µM (inactive); in the experiment on SK-MEL-28, > 100 µM (inactive); in the experiment on SK-OV-3, 33 µM (inactive); in the experiment on A549, > 100 µM (inactive). The GI50 in the experiment on DU-145, in the experiment with PC-3, in the experiment on K562, in the experiment on SF-295, with OVCAR-3 and in the experiment with LOX IMVI was > 100 µM (inactive) each time. Also, the GI50 with CCRF-CEM is > 100 µM (inactive).
